Data from PMC12187371 (Neuro-Oncology, 2024).

Tests used:
[1] = test system: NF2-associated vestibular schwannomas; details: progressive NF2-associated vestibular schwannomas; cited from earlier work
HEI-193 cells [2] = test: HEI-193 cell viability; assay type: cell-based, human; details: WST-8, 3 days
normal human fibroblasts [3] = test: Normal human fibroblast viability; assay type: cell-based; details: WST-8, 3 days
normal human fibroblasts [4] = test: Apoptosis markers in normal human fibroblasts; assay type: cell-based; details: 1 day
HEI-193 cells [5] = test: Western blotting of differentiation and cell cycle markers in HEI-193 cells; assay type: cell-based, human; details: 7 days

Row | Molecule | patients with improved hearing and reduced tumor volume [1] | proliferation of HEI-193 cells (HEI-193 cells [2]) | toxicity in human normal fibroblasts (normal human fibroblasts [3]) | cytochrome c release from mitochondria (normal human fibroblasts [4]) | expression of SOX10, MBP, p21 and p27 (HEI-193 cells [5]) | expression of stem cell factor SOX2 (HEI-193 cells [5])
1 | Bevacizumab | about 40 % of patients | – | – | – | – | –
2 | Cn1cnc2c(F)c(Nc3ccc(Br)cc3Cl)c(C(=O)NOCCO)cc21 [Selumetinib] | – | did not exhibit any effect | – | – | – | –
3 | COc1cc(N2CCC(N3CCN(C)CC3)CC2)ccc1Nc1ncc(Cl)c(Nc2ccccc2P(C)(C)=O)n1 [Brigatinib] | – | dose-dependently reduced | showed toxicity | induced cytochrome c release | decreased the expression of all these markers | decreased the expression of all these markers
